Test results: article PMC9956102, “Structural Insights on Hyp-Gly-Containing Peptides as Antiplatelet Compounds through Topomer CoMFA and CoMSIA Analysis” (Foods, 2023)
Where a name gives a salt, the structure may show the parent alone. Peptide text beside a SMILES is read from it.

System: not listed separately
Test: Coagulation parameters (PT, APTT, TT) after oral administration
Format: in vivo, rat
Details: SD rats, 65 μmol/kg bw, n = 6
Description: The prothrombin time (PT), activated partial thromboplastin time (APTT), and thrombin time (TT) assay methods refer to our previous study. PT, APTT, and TT detection kits (Siemens, Shanghai, China) were employed for the determination of coagulation parameters according to the manufacturer’s instructions.

PT (prothrombin time)	TT (thrombin time)	Compound
altered the TT and PT significantly	altered the TT and PT significantly	COC(=O)[C@H](c1ccccc1Cl)N1CCc2sccc2C1 [clopidogrel, Clopidogrel hydrogen sulfate, reference compound]

Same assay, conditions: SD rats, 200 μmol/kg b.w., n = 6

coagulation parameters, including PT, TT, and APTT	Compound
no significant effect	N[C@@H](CCC(=O)O)C(=O)N1C[C@H](O)C[C@H]1C(=O)NCC(=O)N[C@@H](CCC(=O)O)C(=O)O [EOGE, Glu-Hyp-Gly-Glu] (HELM PEPTIDE1{E.[Hyp].G.E}$$$$V2.0)

Same assay, conditions: SD rats, 300 μmol/kg b.w., n = 6

coagulation parameters, including PT, TT, and APTT	Compound
no significant effect	N[C@@H](CCC(=O)O)C(=O)N1C[C@H](O)C[C@H]1C(=O)NCC(=O)N[C@@H](CCC(=O)O)C(=O)O [EOGE, Glu-Hyp-Gly-Glu] (HELM PEPTIDE1{E.[Hyp].G.E}$$$$V2.0)

System: not listed separately
Test: Thymus index and spleen index
Format: in vivo, rat
Details: SD rats, oral, 65 μmol/kg bw, n = 6
Procedure: After the rats were sacrificed, the thymuses and spleens were collected and weighed to obtain the thymus index (TI) and spleen index (SI). The TI and SI were calculated according to the following equation: TI/SI (mg/g) = (weight of thymus/spleen)/body weight.

thymus index (TI) and spleen index (SI) compared to vehicle group	Compound
no significant difference	COC(=O)[C@H](c1ccccc1Cl)N1CCc2sccc2C1 [clopidogrel, Clopidogrel hydrogen sulfate, reference compound]

Same assay, conditions: SD rats, oral, 200 μmol/kg b.w., n = 6

thymus index (TI) and spleen index (SI) compared to vehicle group	Compound
no significant difference	N[C@@H](CCC(=O)O)C(=O)N1C[C@H](O)C[C@H]1C(=O)NCC(=O)N[C@@H](CCC(=O)O)C(=O)O [EOGE, Glu-Hyp-Gly-Glu] (HELM PEPTIDE1{E.[Hyp].G.E}$$$$V2.0)

Same assay, conditions: SD rats, oral, 300 μmol/kg b.w., n = 6

thymus index (TI) and spleen index (SI) compared to vehicle group	Compound
no significant difference	N[C@@H](CCC(=O)O)C(=O)N1C[C@H](O)C[C@H]1C(=O)NCC(=O)N[C@@H](CCC(=O)O)C(=O)O [EOGE, Glu-Hyp-Gly-Glu] (HELM PEPTIDE1{E.[Hyp].G.E}$$$$V2.0)

System: thrombus formation
Test: not given
Details: oral administration; cited from earlier work
Description: Collagen is a natural source of bioactive peptides and widely distributed in skin and bone tissue, which has a unique triple-helix structure with a repeated amino acid sequence of (Gly-X-Y)n, in which X and Y are typically Pro and Hyp. Hyp-Gly-containing peptides are abundant in collagen, and a large quantity of these peptides could be released after hydrolysis.

Compound	thrombus formation in vivo
OGEFG [peptide identified from Salmo Salar skin in a previous study]	attenuates thrombus formation without bleeding risks

System: ADP-induced platelet aggregation
Test: not given
Format: cell-based, rat
Details: not given
Procedure: The platelet was isolated from rat aorta blood and mixed with sodium citrate (1:9, v/v) as previously described with some modifications. Briefly, anticoagulated blood was centrifuged (50× g, 10 min) to obtain platelet-rich plasma (PRP). The residue was centrifuged at 750× g for 10 min to collect the platelet-poor plasma (PPP), and PRP was diluted to 2–3 × 10^8 with PPP.
Inhibition of platelet aggregation induced by ADP was measured with a four-channel aggregometer as previously described. Aliquots of 270 μL of PRP were incubated with 30 μL of PPP or peptides with different concentrations at 37 °C for 5 min. After incubation, platelet aggregation was induced by adding 30 μL of ADP (0.1 mM). The platelet aggregation at 5 min was recorded, and the inhibition rate was calculated as follows. Inhibition of platelet aggregation (%) = [1 − platelet aggregation (sample)/platelet aggregation (control)] × 100
The IC50 value of platelet aggregation was calculated by Graphpad Prism 6.0.

IC50	Compound
760 µM	NC(=O)CC[C@H](NC(=O)CNC(=O)[C@@H]1C[C@@H](O)CN1)C(=O)O [OGQ] (HELM PEPTIDE1{[Hyp].G.Q}$$$$V2.0; N-terminus and C-terminus assumed)
317 µM	O=C(O)CC[C@H](NC(=O)CNC(=O)[C@@H]1C[C@@H](O)CN1C(=O)[C@H](CCC(=O)O)NC(=O)CNC(=O)[C@@H]1CCCN1)C(=O)O [PGEOGE] (HELM PEPTIDE1{P.G.E.[Hyp].G.E}$$$$V2.0; N-terminus and C-terminus assumed)
2080 µM	NCC(=O)N1C[C@H](O)C[C@H]1C(=O)N1C[C@H](O)C[C@H]1C(=O)NCC(=O)N1CCC[C@H]1C(=O)N[C@@H](CCC(N)=O)C(=O)O [GOOGPQ] (HELM PEPTIDE1{G.[Hyp].[Hyp].G.P.Q}$$$$V2.0; N-terminus and C-terminus assumed)
630 µM	C[C@H](NC(=O)[C@H](CO)NC(=O)CNC(=O)[C@@H]1C[C@@H](O)CN1)C(=O)O [OGSA] (HELM PEPTIDE1{[Hyp].G.S.A}$$$$V2.0)
3640 µM	O=C(O)CNC(=O)[C@@H]1CCCN1 [PG] (H-Pro-Gly-OH; N-terminus and C-terminus assumed)
2790 µM	NCCCC[C@H](NC(=O)[C@@H]1CCCN1C(=O)CNC(=O)[C@@H]1CCCN1)C(=O)O [PGPK] (H-PGPK-OH)
1490 µM	CSCC[C@H](NC(=O)[C@@H]1C[C@@H](O)CN1C(=O)CNC(=O)[C@@H]1C[C@@H](O)CN1)C(=O)NCC(=O)O [OGOMG] (HELM PEPTIDE1{[Hyp].G.[Hyp].M.G}$$$$V2.0; N-terminus and C-terminus assumed)
5340 µM	CSCC[C@H](NC(=O)[C@@H]1CCCN1C(=O)CNC(=O)[C@@H]1CCCN1C(=O)[C@@H]1C[C@@H](O)CN1C(=O)CN)C(=O)O [GOPGPM] (HELM PEPTIDE1{G.[Hyp].P.G.P.M}$$$$V2.0; N-terminus and C-terminus assumed)
395 µM	N[C@@H](CCC(=O)O)C(=O)N1C[C@H](O)C[C@H]1C(=O)NCC(=O)O [EOG] (HELM PEPTIDE1{E.[Hyp].G}$$$$V2.0; N-terminus and C-terminus assumed)
2570 µM	NCCCC[C@H](NC(=O)CNC(=O)[C@@H]1CCCN1)C(=O)N1CCC[C@H]1C(=O)O [PGKP] (H-PGKP-OH)
1420 µM	O=C(O)CNC(=O)[C@@H]1C[C@@H](O)CN1 [OG] (HELM PEPTIDE1{[Hyp].G}$$$$V2.0)
390 µM	N[C@@H](CCC(=O)O)C(=O)N1C[C@H](O)C[C@H]1C(=O)NCC(=O)N[C@@H](CCC(=O)O)C(=O)O [EOGE, Glu-Hyp-Gly-Glu] (HELM PEPTIDE1{E.[Hyp].G.E}$$$$V2.0)
3560 µM	NC(=O)CC[C@H](NC(=O)[C@@H]1CCCN1C(=O)CNC(=O)[C@@H]1CCCN1)C(=O)O [PGPQ] (H-PGPQ-OH)
878 µM	NCC(=O)N[C@@H](CCC(=O)O)C(=O)N1C[C@H](O)C[C@H]1C(=O)NCC(=O)O [GEOG] (HELM PEPTIDE1{G.E.[Hyp].G}$$$$V2.0)
661 µM	N[C@@H](CC(=O)O)C(=O)N1C[C@H](O)C[C@H]1C(=O)NCC(=O)N[C@@H](CCC(=O)O)C(=O)O [DOGE] (HELM PEPTIDE1{D.[Hyp].G.E}$$$$V2.0)
927 µM	O=C(O)CC[C@H](NC(=O)CNC(=O)[C@@H]1CCCN1)C(=O)O [PGE] (H-Pro-Gly-Glu-OH; N-terminus and C-terminus assumed)
435 µM	O=C(O)C[C@H](NC(=O)CNC(=O)[C@@H]1C[C@@H](O)CN1)C(=O)O [OGD] (HELM PEPTIDE1{[Hyp].G.D}$$$$V2.0; N-terminus and C-terminus assumed)
1400 µM	O=C(CNC(=O)[C@@H]1CCCN1)N[C@@H](Cc1c[nH]cn1)C(=O)N[C@@H](Cc1c[nH]cn1)C(=O)O [PGHH]
857 µM	O=C(O)CC[C@H](NC(=O)CNC(=O)[C@@H]1CCCN1)C(=O)N1C[C@H](O)C[C@H]1C(=O)NCC(=O)O [PGEOG] (HELM PEPTIDE1{P.G.E.[Hyp].G}$$$$V2.0; N-terminus and C-terminus assumed)
2450 µM	CC(C)[C@H](N)C(=O)NCC(=O)N1CCC[C@H]1C(=O)N1C[C@H](O)C[C@H]1C(=O)NCC(=O)N1CCC[C@H]1C(=O)N[C@@H](C)C(=O)O [VGPOGPA] (HELM PEPTIDE1{V.G.P.[Hyp].G.P.A}$$$$V2.0; N-terminus and C-terminus assumed)
558 µM	O=C(O)CC[C@H](NC(=O)[C@H](CO)NC(=O)CNC(=O)[C@@H]1C[C@@H](O)CN1)C(=O)O [OGSE] (HELM PEPTIDE1{[Hyp].G.S.E}$$$$V2.0)
620 µM	O=C(O)CC[C@H](NC(=O)CNC(=O)[C@@H]1C[C@@H](O)CN1)C(=O)O [OGE] (HELM PEPTIDE1{[Hyp].G.E}$$$$V2.0; N-terminus and C-terminus assumed)
2410 µM	NC(=O)CC[C@H](NC(=O)CNC(=O)[C@@H]1CCCN1)C(=O)N1CCC[C@H]1C(=O)O [PGQP] (H-PGQP-OH)
506 µM	O=C(NCC(=O)N1CCC[C@H]1C(=O)O)[C@@H]1C[C@@H](O)CN1 [OGP] (HELM PEPTIDE1{[Hyp].G.P}$$$$V2.0; N-terminus and C-terminus assumed)
